The target in one assay is T1, IRAK4 (Homo sapiens, UniProt Q9NWZ3).
T1 sequence (Q9NWZ3 1-460): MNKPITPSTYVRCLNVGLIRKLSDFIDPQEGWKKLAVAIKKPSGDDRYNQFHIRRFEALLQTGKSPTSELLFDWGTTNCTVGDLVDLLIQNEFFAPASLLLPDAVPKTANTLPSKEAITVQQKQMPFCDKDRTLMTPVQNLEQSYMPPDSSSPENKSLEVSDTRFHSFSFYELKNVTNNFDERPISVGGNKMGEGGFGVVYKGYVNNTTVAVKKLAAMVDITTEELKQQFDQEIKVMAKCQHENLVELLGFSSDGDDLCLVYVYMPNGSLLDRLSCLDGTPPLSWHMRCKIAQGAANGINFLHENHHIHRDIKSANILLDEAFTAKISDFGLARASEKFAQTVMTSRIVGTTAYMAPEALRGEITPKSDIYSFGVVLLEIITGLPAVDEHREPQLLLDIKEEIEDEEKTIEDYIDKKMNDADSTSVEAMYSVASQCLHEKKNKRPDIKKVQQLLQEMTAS
The assay can be described thus: Degradation of IRAK4 in SU-DHL-2 cells (flow cytometry). In kind it is cell-based. Further details: The degradation level of IRAK4 protein in SU-DHL-2 cell line by the compounds was detected by flow cytometry; endogenous in cells; host or cells: SU-DHL-2; OCI-LY3. The following applies: SU-DHL-2 cells, 24 hours incubation; read-out: SU-DHL-2 DC50. The method, then: The degradation level of IRAK4 protein in SU-DHL-2 cell line by the compounds was detected by flow cytometry.
Step 2: On day 1, the cells were seeded at a density of 2 × 10^5 cells per well in 100 µL in a 96-well plate. The compounds were dissolved in DMSO to a final concentration of 10 mM, and then diluted with culture medium at a 1:5 concentration gradient to prepare 10 concentrations. The diluted solutions were added to the cells to obtain a maximum final concentration of 2 µM. Wells containing cells treated with 0.1% DMSO served as the […] The cells were incubated at 37°C in a 5% CO2 incubator for 24 hours.
Step 3: After centrifugation, the cells were washed with FACS buffer. The cells were stained for viability discrimination using the LIVE/DEAD™ Fixable Blue Dead Cell Stain Kit, and surface staining of monocytes was performed with PE Mouse Anti-Human CD14, followed by incubation at 4°C for 30 minutes.
Step 4: After centrifugation, the cells were washed with FACS buffer. Fix buffer I, equal in volume to the cultured cells, was added, and the cells were fixed at 37°C for 10 minutes.
Step 5: After centrifugation, the cells were washed with FACS buffer. 150 µL of Perm III reagent was added, and the cells were incubated at 4°C for 30 minutes to permeabilize the membranes. After centrifugation, the cells were washed with FACS buffer.
Flow cytometry analysis was performed using a flow cytometer.
The flow cytometry data were analyzed using Flowjo software. Data presentation and DC50 (half-maximal degradation concentration) calculation were performed using Prism 8.0.2 (GraphPad).
In the case of `Cn1c(=O)n(C2CCC(=O)NC2=O)c2cccc(C#CCOC[C@H]3C[C@H]3CN3CCC4(CC3)CC(n3cc(NC(=O)c5cnn6ccc(N7C[C@H]8C[C@@H]7CO8)nc56)c(C(F)F)n3)C4)c21` (relative stereo) [Example 44], the DC50 was found to be 5.4 nM.

Turning to `Cn1c(=O)n(C2CCC(=O)NC2=O)c2cccc(C#CCOCCN3CCC4(CCC(n5cc(NC(=O)c6cnn7ccc(N8C[C@H]9C[C@@H]8CO9)nc67)c(C(F)F)n5)CC4)CC3)c21` (stereo partly shown) [Example 37], the DC50 was 24 nM.

Turning to `Cn1c(=O)n(C2CCC(=O)NC2=O)c2cccc(C#CCOC3CC(CN4CCC5(CCC(n6cc(NC(=O)c7cnn8ccc(N9C[C@H]%10C[C@@H]9CO%10)nc78)c(C(F)F)n6)CC5)CC4)C3)c21` (stereo partly shown) [Example 40], the DC50 turned out to be 33 nM.

Consider `Cn1c(=O)n(C2CCC(=O)NC2=O)c2cccc(C#CCOC3CCC(CN4CCC5(CCC(n6cc(NC(=O)c7cnn8ccc(N9C[C@H]%10C[C@@H]9CO%10)nc78)c(C(F)F)n6)CC5)CC4)CC3)c21` (stereo partly shown) [Example 46], for which the DC50 stood at 13 nM.

Staying with this assay, now noted: read-out: SU-DHL-2 DC50.
With `Cn1c(=O)n(C2CCC(=O)NC2=O)c2cccc(C#CCOC3CCC(N4CCC5(CC4)CC(n4cc(NC(=O)c6cnn7ccc(N8C[C@H]9C[C@@H]8CO9)nc67)c(C(F)F)n4)C5)CC3)c21` (stereo partly shown) [Example 33], the DC50 was found to be 6.5 nM.

For the compound `Cn1c(=O)n(C2CCC(=O)NC2=O)c2cccc(C#CC(C)(C)N3CCC(CN4CCC5(CC4)CC(n4cc(NC(=O)c6cnn7ccc(N8C[C@H]9C[C@@H]8CO9)nc67)c(C(F)F)n4)C5)CC3)c21` (stereo partly shown) [Example 34], the DC50 was determined as 21 nM.

For the compound `Cn1c(=O)n(C2CCC(=O)NC2=O)c2cccc(C#CCC3CCC(N4CCC5(CC4)CC(n4cc(NC(=O)c6cnn7ccc(N8C[C@H]9C[C@@H]8CO9)nc67)c(C(F)F)n4)C5)CC3)c21` (stereo partly shown) [Example 35], the DC50 amounted to 5 nM.

On to `Cn1c(=O)n(C2CCC(=O)NC2=O)c2cccc(C#CCOC3CC(N4CCC5(CCC(n6cc(NC(=O)c7cnn8ccc(N9C[C@H]%10C[C@@H]9CO%10)nc78)c(C(F)F)n6)CC5)CC4)C3)c21` (stereo partly shown) [Example 38], for which the DC50 turned out to be 68 nM.

Turning to `Cn1c(=O)n(C2CCC(=O)NC2=O)c2cccc(C#CCOC3CN(C(=O)N4CCC5(CCC(n6cc(NC(=O)c7cnn8ccc(N9C[C@H]%10C[C@@H]9CO%10)nc78)c(C(F)F)n6)CC5)CC4)C3)c21` (stereo partly shown) [Example 39], the DC50 amounted to 17 nM.

Turning to `Cn1c(=O)n(C2CCC(=O)NC2=O)c2cccc(C#CCOC3CCN(C(=O)N4CCC5(CCC(n6cc(NC(=O)c7cnn8ccc(N9C[C@H]%10C[C@@H]9CO%10)nc78)c(C(F)F)n6)CC5)CC4)CC3)c21` (stereo partly shown) [Example 43], the DC50 worked out at 61 nM.

As for `COc1cc2nn(C3CCC4(CC3)CCN(CC3CCN(c5ccc6c(c5)C(=O)N(C5CCC(=O)NC5=O)C6=O)CC3)CC4)cc2cc1C(=O)Nc1cnc2cccnn12` (stereo not shown) [Example 47], the DC50 was found to be 0.5 nM.

Consider `COc1cc2nn(C3CCC4(CC3)CCN(CC3CCN(c5ccc6c(c5)C(=O)N(C5CCC(=O)NC5=O)C6=O)CC3)CC4)cc2cc1NC(=O)c1cnn2cccnc12` (stereo not shown) [Example 48], for which the DC50 came to 1 nM.

In the case of `Cn1c(=O)n(C2CCC(=O)NC2=O)c2cccc(C#CC(C)(C)N3CC(C(=O)N4CCC5(CC4)CC(n4cc(NC(=O)c6cnn7ccc(N8C[C@H]9C[C@@H]8CO9)nc67)c(C(F)F)n4)C5)C3)c21` (stereo partly shown) [Example 50], the DC50 came to 4 nM.

In the case of `Cn1c(=O)n(C2CCC(=O)NC2=O)c2cccc(C#CCOC34CCC(C(=O)N5CCC6(CC5)CC(n5cc(NC(=O)c7cnn8ccc(N9C[C@H]%10C[C@@H]9CO%10)nc78)c(C(F)F)n5)C6)(CC3)CC4)c21` (stereo partly shown) [Example 51], the DC50 worked out at 7 nM.

Consider `Cn1c(=O)n(C2CCC(=O)NC2=O)c2cccc(C#CC(C)(C)N3CC[C@@H](C(=O)N4CCC5(CC4)CC(n4cc(NC(=O)c6cnn7ccc(N8C[C@H]9C[C@@H]8CO9)nc67)c(C(F)F)n4)C5)C3)c21` (stereo partly shown) [Example 54], for which the DC50 was determined as 17 nM.

In the case of `Cn1c(=O)n(C2CCC(=O)NC2=O)c2cccc(C#CC(C)(C)N3CC[C@H](C(=O)N4CCC5(CC4)CC(n4cc(NC(=O)c6cnn7ccc(N8C[C@H]9C[C@@H]8CO9)nc67)c(C(F)F)n4)C5)C3)c21` (stereo partly shown) [Example 55], the DC50 came out at 7 nM.

(Values after patent EP4656640A1, “IRAK4 DEGRADER AND USE THEREOF” (Shanghai Qilu Pharmaceutical Research and Development …, priority 2023, dated 2024).)
